This note sets out measurements from patent US20100048597A1 (Novartis AG, priority 2006, published 2010).

One test addresses T1, CDK1/cyclinB (Homo sapiens, UniProt P06493).
T1 construct: purchased Millipore
Put plainly: CDK1/cyclinB kinase assay, IMAP fluorescence polarization. The format is biochemical. The conditions noted are these: read-out: CDK1 IC50. How it is done:
(§1) Kinase assays were performed on recombinant purified enzymes using the non-radioactive IMAP fluorescence polarization assay format.
(§2) Compound stocks were prepared and diluted in DMSO and were added to kinase reactions at a 1/100 dilution for a final concentration of 1% DMSO. The components were added together to final concentrations listed in the tables below and incubated for two hours at room temperature.
(§3) The reactions were stopped by addition of stop solution.
The samples were allowed to incubate for one more hour at room temperature and then the fluorescence polarization was measured.
(In general: In fluorescence polarisation assays a small probe gives low polarisation when free and higher when bound to something large.)

The target in another test is T2, CDK9/cyclinT1 (Homo sapiens, UniProt P50750).
T2 construct: purchased Millipore
T2 sequence (P50750 whole entry): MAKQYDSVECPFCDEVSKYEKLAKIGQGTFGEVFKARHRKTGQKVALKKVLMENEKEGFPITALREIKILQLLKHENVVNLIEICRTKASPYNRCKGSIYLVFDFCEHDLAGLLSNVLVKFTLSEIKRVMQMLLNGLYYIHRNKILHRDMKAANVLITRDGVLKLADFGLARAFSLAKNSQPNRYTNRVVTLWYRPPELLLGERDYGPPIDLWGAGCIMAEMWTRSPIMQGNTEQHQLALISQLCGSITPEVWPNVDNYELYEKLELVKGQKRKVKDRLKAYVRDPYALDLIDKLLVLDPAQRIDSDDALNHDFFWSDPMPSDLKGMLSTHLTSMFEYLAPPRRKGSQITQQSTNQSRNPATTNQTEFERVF
T2 sequence (O60563 whole entry partner): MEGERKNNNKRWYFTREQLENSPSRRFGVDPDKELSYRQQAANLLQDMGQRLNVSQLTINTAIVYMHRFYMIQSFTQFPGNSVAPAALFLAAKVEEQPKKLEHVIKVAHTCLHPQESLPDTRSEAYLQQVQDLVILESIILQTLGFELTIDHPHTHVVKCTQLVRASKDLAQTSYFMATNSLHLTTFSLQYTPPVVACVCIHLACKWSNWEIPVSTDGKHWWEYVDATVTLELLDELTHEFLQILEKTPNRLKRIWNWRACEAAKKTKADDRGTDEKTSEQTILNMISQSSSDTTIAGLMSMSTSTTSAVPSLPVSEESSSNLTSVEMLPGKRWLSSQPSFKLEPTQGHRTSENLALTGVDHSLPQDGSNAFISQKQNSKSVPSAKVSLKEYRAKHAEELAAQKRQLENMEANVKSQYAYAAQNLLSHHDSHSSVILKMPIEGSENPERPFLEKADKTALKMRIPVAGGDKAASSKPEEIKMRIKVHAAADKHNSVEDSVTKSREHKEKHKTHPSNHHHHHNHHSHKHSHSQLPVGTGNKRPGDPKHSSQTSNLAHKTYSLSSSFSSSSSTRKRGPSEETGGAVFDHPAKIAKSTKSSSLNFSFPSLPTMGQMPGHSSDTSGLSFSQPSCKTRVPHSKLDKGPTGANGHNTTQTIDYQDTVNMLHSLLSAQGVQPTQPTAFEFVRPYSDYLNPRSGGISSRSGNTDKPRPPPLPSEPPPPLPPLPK
Put plainly: CDK9/cyclinT1 kinase assay, IMAP fluorescence polarization. The test is classed as biochemical. How it is done: as §1, §2, §3
CDK9/CDK1/CDK7: final stop concentration is 1× Developer buffer (85% A/15% B), IMAP beads 1/400
The samples were allowed to incubate for one more hour at room temperature and then the fluorescence polarization was measured. The plate normalized millipolarization (mP) values were plotted against the log of compound concentration for each compound and IC50 values were calculated using the spotfire IC50 calculator and confirmed by visual analysis.

As usually defined, the IC50 is the concentration at which inhibition is half-maximal.

T1 sequence (P06493 whole entry): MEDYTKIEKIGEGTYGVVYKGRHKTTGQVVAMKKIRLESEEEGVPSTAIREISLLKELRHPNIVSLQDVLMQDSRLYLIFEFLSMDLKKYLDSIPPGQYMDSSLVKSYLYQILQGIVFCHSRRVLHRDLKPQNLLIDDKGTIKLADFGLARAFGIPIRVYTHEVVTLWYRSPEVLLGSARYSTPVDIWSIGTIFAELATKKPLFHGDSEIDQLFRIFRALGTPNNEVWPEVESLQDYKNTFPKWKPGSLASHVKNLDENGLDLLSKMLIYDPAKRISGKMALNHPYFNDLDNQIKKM
T1 sequence (P14635 whole entry partner): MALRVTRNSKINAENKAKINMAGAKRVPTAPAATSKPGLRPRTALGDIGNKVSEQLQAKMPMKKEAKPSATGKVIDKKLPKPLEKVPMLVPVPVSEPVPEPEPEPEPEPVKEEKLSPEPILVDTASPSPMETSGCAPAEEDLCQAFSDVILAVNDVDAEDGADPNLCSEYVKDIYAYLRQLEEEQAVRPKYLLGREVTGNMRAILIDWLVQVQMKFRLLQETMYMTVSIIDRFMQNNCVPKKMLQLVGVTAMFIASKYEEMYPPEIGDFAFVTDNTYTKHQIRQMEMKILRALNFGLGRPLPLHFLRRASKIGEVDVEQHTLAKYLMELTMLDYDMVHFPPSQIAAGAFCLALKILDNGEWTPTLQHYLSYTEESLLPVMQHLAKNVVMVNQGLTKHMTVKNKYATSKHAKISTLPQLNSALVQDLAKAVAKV

`Cc1c(-c2ccnc(Nc3cccc(Cl)c3)n2)ccnc1NCCCN` [Compound 4, N-{4-[2-(3-Chloro-phenylamino)-pyrimidin-4-yl]-3-methyl-pyridin-2-yl}-propane-1,3-diamine]: the IC50 at CDK1/cyclinB and on CDK9/cyclinT1 was below 5 µM throughout.
As for `CCc1c(-c2ccnc(Nc3cccc(Cl)c3)n2)ccnc1NCCCN` [Compound 5, N-{4-[2-(3-Chloro-phenylamino)-pyrimidin-4-yl]-3-ethyl-pyridin-2-yl}-propane-1,3-diamine], the IC50 on CDK1/cyclinB and at CDK9/cyclinT1 was below 5 µM in each case.
Regarding `CCc1c(-c2ccnc(Nc3cccc(Cl)c3)n2)ccnc1NCCCNC(C)=O` [Compound 7, N-(3-{4-[2-(3-Chloro-phenylamino)-pyrimidin-4-yl]-3-ethyl-pyridin-2-ylamino}-propyl)-acetamide], the IC50 on CDK1/cyclinB and against CDK9/cyclinT1 was below 5 µM throughout.
Turning to `Cc1c(-c2ccnc(N(C)c3cccc(Cl)c3)n2)ccnc1NCCCN` [Compound 8, N-(4-{2-[(3-Chloro-phenyl)-methyl-amino]-pyrimidin-4-yl}-3-methyl-pyridin-2-yl)-propane-1,3-diamine], the 50% inhibitory concentration (IC50) at CDK1/cyclinB was in the range of 15 to 50 µM; against CDK9/cyclinT1 it was 5 to 15 µM.
`CNCCCN(C)c1nccc(-c2ccnc(Nc3cccc(Cl)c3)n2)c1C` [Compound 9, N-{4-[2-(3-Chloro-phenylamino)-pyrimidin-4-yl]-3-methyl-pyridin-2-yl}-N,N′-dimethyl-propane-1,3-diamine]: the IC50 at CDK1/cyclinB and on CDK9/cyclinT1 was below 5 µM each time.
As for `CC(=O)N(C)CCCN(C)c1nccc(-c2ccnc(Nc3cccc(Cl)c3)n2)c1C` [Compound 10, N-[3-({4-[2-(3-Chloro-phenylamino)-pyrimidin-4-yl]-3-methyl-pyridin-2-yl}-methyl-amino)-propyl]-N-methyl-acetamide], the IC50 is 5 to 15 µM at CDK1/cyclinB and below 5 µM against CDK9/cyclinT1.
For `CNCCCN(C)c1nccc(-c2ccnc(N(C)c3cccc(Cl)c3)n2)c1C` [Compound 11, N-(4-{2-[(3-Chloro-phenyl)-methyl-amino]-pyrimidin-4-yl}-3-methyl-pyridin-2-yl)-N,N′-dimethyl-propane-1,3-diamine], in that order: 15 to 50 µM and above 50 µM.
For `CC(=O)NCCCNc1nccc(-c2ccnc(N(C)c3cccc(Cl)c3)n2)c1C` [Compound 13, N-[3-(4-{2-[(3-Chloro-phenyl)-methyl-amino]-pyrimidin-4-yl}-3-methyl-pyridin-2-ylamino)-propyl]-acetamide], in that order: above 50 µM and above 50 µM.
With `CC(=O)NCCCNc1nccc(-c2ccnc(Nc3cccc(CNC(C)=O)c3)n2)c1C` [Compound 15, N-[3-(4-{2-[3-(Acetylamino-methyl)-phenylamino]-pyrimidin-4-yl}-3-methyl-pyridin-2-ylamino)-propyl]-acetamide], the IC50 is above 50 µM on CDK1/cyclinB and below 5 µM at CDK9/cyclinT1.
For `Cc1c(-c2ccnc(Nc3cccc(Cl)c3)n2)ccnc1NCCCO` [Compound 17, 3-{4-[2-(3-Chloro-phenylamino)-pyrimidin-4-yl]-3-methyl-pyridin-2-ylamino}-propan-1-ol], in that order: below 5 µM and below 5 µM.
Consider `CC(=O)OCCCNc1nccc(-c2ccnc(Nc3cccc(Cl)c3)n2)c1C` [Compound 19, Acetic acid 3-{4-[2-(3-chloro-phenylamino)-pyrimidin-4-yl]-3-methyl-pyridin-2-ylamino}-propyl ester], for which the concentration for half-maximal inhibition (IC50) on CDK1/cyclinB is 5 to 15 µM; against CDK9/cyclinT1, below 5 µM.
`Cc1c(-c2ccnc(Nc3cccc(Cl)c3)n2)ccnc1NCCC(=O)O` [Compound 20, 3-{4-[2-(3-Chloro-phenylamino)-pyrimidin-4-yl]-3-methyl-pyridin-2-ylamino}-propionic acid]: the IC50 at CDK1/cyclinB was 5 to 15 µM; on CDK9/cyclinT1 it was below 5 µM.
The like results for `Cc1c(-c2ccnc(Nc3cccc(Cl)c3)n2)ccnc1NCCCNc1ccc(CN)cc1` [Compound 27, N-(4-Aminomethyl-phenyl)-N′-{4-[2-(3-chloro-phenylamino)-pyrimidin-4-yl]-3-methyl-pyridin-2-yl}-propane-1,3-diamine] were, in that order, 5 to 15 µM and below 5 µM.
With `CC(=O)NCc1ccc(NCCCNc2nccc(-c3ccnc(Nc4cccc(Cl)c4)n3)c2C)cc1` [Compound 28, N-[4-(3-{4-[2-(3-Chloro-phenylamino)-pyrimidin-4-yl]-3-methyl-pyridin-2-ylamino}-propylamino)-benzyl]-acetamide], the half-inhibitory concentration (IC50) is 15 to 50 µM at CDK1/cyclinB and below 5 µM against CDK9/cyclinT1.
For `Cc1cnc(Nc2cccc(Cl)c2)nc1-c1ccnc(NCCCN)c1` [Compound 31, N-{4-[2-(3-Chloro-phenylamino)-5-methyl-pyrimidin-4-yl]-pyridin-2-yl}-propane-1,3-diamine], in that order: below 5 µM and below 5 µM.
On to `Cc1cc(-c2ccnc(NCCCN)c2)nc(Nc2cccc(Cl)c2)n1` [Compound 33, N-{4-[2-(3-Chloro-phenylamino)-6-methyl-pyrimidin-4-yl]-pyridin-2-yl}-propane-1,3-diamine], for which the IC50 is above 50 µM on CDK1/cyclinB and 15 to 50 µM against CDK9/cyclinT1.
As to `CC(=O)NCCCNc1cc(-c2cc(C)nc(Nc3cccc(Cl)c3)n2)ccn1` [Compound 34, N-(3-{4-[2-(3-Chloro-phenylamino)-6-methyl-pyrimidin-4-yl]-pyridin-2-ylamino}-propyl)-acetamide], the half-inhibitory concentration (IC50) at CDK1/cyclinB and at CDK9/cyclinT1 was below 5 µM each time.
`NCCCNc1cc2c(cn1)CCc1cnc(Nc3cccc(Cl)c3)nc1-2` [Compound 35, N-(3-Amino-propyl)-N-(3-chloro-phenyl)-9,10-dihydro-2,4,7-triaza-phenanthrene-3,6-diamine]: the IC50 on CDK1/cyclinB and against CDK9/cyclinT1 was below 5 µM each time.
Take `CC(=O)NCCCNc1cc2c(cn1)CCc1cnc(Nc3cccc(Cl)c3)nc1-2` [Compound 36, N-{3-[3-(3-Chloro-phenylamino)-9,10-dihydro-2,4,7-triaza-phenanthren-6-ylamino]-propyl}-acetamide]: the half-maximal inhibitory concentration (IC50) on CDK1/cyclinB and against CDK9/cyclinT1 was below 5 µM each time.
On to `CC(=O)NCCCNc1nccc2c1CCc1cnc(Nc3cccc(Cl)c3)nc1-2` [Compound 38, N-{3-[3-(3-Chloro-phenylamino)-9,10-dihydro-2,4,7-triaza-phenanthren-8-ylamino]-propyl}-acetamide], for which the IC50 on CDK1/cyclinB was 5 to 15 µM; on CDK9/cyclinT1 it was below 5 µM.
The like results for `Cc1cnc(NCCCN)cc1-c1ccnc(Nc2cccc(Cl)c2)n1` [Compound 39, N-{4-[2-(3-Chloro-phenylamino)-pyrimidin-4-yl]-5-methyl-pyridin-2-yl}-propane-1,3-diamine] were, in that order, below 5 µM and below 5 µM.
The like results for `CC(=O)NCCCNc1cc(-c2ccnc(Nc3cccc(Cl)c3)n2)c(C)cn1` [Compound 40, N-(3-{4-[2-(3-Chloro-phenylamino)-pyrimidin-4-yl]-5-methyl-pyridin-2-ylamino}-propyl)-acetamide] were, in that order, 15 to 50 µM and below 5 µM.
In the case of `Cc1cc(-c2ccnc(Nc3cccc(Cl)c3)n2)cc(NCCCN)n1` [Compound 41, N-{4-[2-(3-Chloro-phenylamino)-pyrimidin-4-yl]-6-methyl-pyridin-2-yl}-propane-1,3-diamine], the IC50 at CDK1/cyclinB and against CDK9/cyclinT1 was below 5 µM throughout.
